19 compounds from patent US9346817B2, “Dioxino- and oxazin-[2,3-D]pyrimidine PI3K inhibitor compounds and methods of use” (Genentech, Inc., priority 2012, dated 2016) can be followed below.

Each structure is given as a SMILES string.

Data set [1] relates to MDA-MB-361.1 cells (breast, PI3K mutation). Description: In vitro cell proliferation assay (CellTiter-Glo), MDA-MB-361.1. The class given is cell-based. As to conditions: Cell line: MDA-MB-361.1; Tissue type: breast; Mutation Status: PI3K. The method, then: (§1) The cytotoxic or cytostatic activity of Formula I exemplary compounds was measured by: establishing a proliferating mammalian tumor cell line in a cell culture medium, adding a Formula I compound, culturing the cells for a period from about 6 hours to about 5 days; and measuring cell viability (Example 902). Cell-based in vitro assays were used to measure viability, i.e. proliferation (IC50), cytotoxicity (EC50), and induction of apoptosis (caspase activation).
(§2) The in vitro potency of Formula I exemplary compounds was measured by the cell proliferation assay, CellTiter-Glo® Luminescent Cell Viability Assay, commercially available from Promega Corp., Madison, Wis. (Example 902). This homogeneous assay method is based on the recombinant expression of Coleoptera luciferase (U.S. Pat. No. 5,583,024; U.S. Pat. No. 5,674,713; U.S. Pat. No. 5,700,670) and determines the number of viable cells in culture based on quantitation of the ATP present, an indicator of metabolically active cells (Crouch et al (1993) J. Immunol. Meth. 160:81-88; U.S. Pat. No. 6,602,677). The CellTiter-Glo® Assay was conducted in 96 or 384 well format, making it amenable to automated high-throughput screening (HTS) (Cree et al (1995) AntiCancer Drugs 6:398-404). The homogeneous assay procedure involves adding the single reagent (CellTiter-Glo® Reagent) directly to cells cultured in serum-supplemented medium. Cell washing, removal of medium and multiple pipetting steps are not required. The system detects as few as 15 cells/well in a 384-well format in 10 minutes after adding reagent and mixing.
(§3) The homogeneous “add-mix-measure” format results in cell lysis and generation of a luminescent signal proportional to the amount of ATP present. The amount of ATP is directly proportional to the number of cells present in culture. The CellTiter-Glo® Assay generates a “glow-type” luminescent signal, produced by the luciferase reaction, which has a half-life generally greater than five hours, depending on cell type and medium used. Viable cells are reflected in relative luminescence units (RLU). The substrate, Beetle Luciferin, is oxidatively decarboxylated by recombinant firefly luciferase with concomitant conversion of ATP to AMP and generation of photons. The extended half-life eliminates the need to use reagent injectors and provides flexibility for continuous or batch mode processing of multiple plates. This cell proliferation assay can be used with various multiwell formats, e.g. 96 or 384 well format. Data can be recorded by luminometer or CCD camera imaging device. The luminescence output is presented as relative light units (RLU), measured over time.
(§4) The anti-proliferative effects of Formula I exemplary compounds were measured by the CellTiter-Glo® Assay (Example 902) against several tumor cell lines. Potency EC50 values were established for the tested compounds. The range of in vitro cell potency activities was about 100 nM to about 10 μM.
(§5) Efficacy of Formula I compounds was measured by a cell proliferation assay employing the following protocol (Promega Corp. Technical Bulletin TB288; Mendoza et al (2002) Cancer Res. 62:5485-5488):
(§6) 1. An aliquot of 100 μl of cell culture containing about 10^4 cells (PC3 (prostate cancer), Detroit562 (pharynx carcinoma), or MDAMB361.1 (breast cancer) in medium was deposited in each well of a 384-well, opaque-walled plate.
(§7) 2. Control wells were prepared containing medium and without cells.
(§8) 3. The compound was added to the experimental wells and incubated for 3-5 days.
(§9) 4. The plates were equilibrated to room temperature for approximately 30 minutes.
(§10) 5. A volume of CellTiter-Glo® Reagent equal to the volume of cell culture medium present in each well was added.
(§11) 6. The contents were mixed for 2 minutes on an orbital shaker to induce cell lysis.
(§12) 7. The plate was incubated at room temperature for 10 minutes to stabilize the luminescence signal.
(§13) 8. Luminescence was recorded and reported in graphs as RLU=relative luminescence units. […]

For data set [2], the system named is PC3 cells (prostate, PTEN mutation). Description: In vitro cell proliferation assay (CellTiter-Glo), PC3. As to conditions: Homo sapiens, PC-3; Cell line: PC3; Tissue type: prostate; Mutation Status: PTEN. The format is cell-based. The method, then: as §1, §2, §3, §4, §5, §6, §7, §8, §9, §10, §11, §12, §13
(In ATP-based viability assays light output follows the ATP content of the culture.)

A short description of data set [3]: Brain protein binding in rats. The class given is in vitro ADME. As to conditions: rat, read-out: Brain protein binding (mean bound %) (converted). The method, then: Brain protein binding in rats was measured for Formula I exemplary compounds, including the following: […]

As for `Nc1ncc(-c2nc3c(c(N4CCOCC4)n2)OCCO3)cn1` [Compound 101, 5-(4-morpholino-6,7-dihydro-[1,4]dioxino[2,3-d]pyrimidin-2-yl)pyrimidin-2-amine], the 50% effective concentration (EC50) – broadly, the concentration that produces a half-maximal response – in data set [1] turned out to be 1.1 µM; in data set [2], 1 µM. In data set [3], the fraction unbound was 0.285.

With `C[C@@H]1COc2nc(-c3cnc(N)nc3)nc(N3CCOCC3)c2O1` [Compound 102, 5-[(6R)-6-methyl-4-morpholino-6,7-dihydro-[1,4]dioxino[2,3-d]pyrimidin-2-yl]pyrimidin-2-amine], the EC50 in data set [1] is 0.37 µM; in data set [2] it was 0.557 µM. Moreover, the fraction unbound in data set [3] was 0.2.

In the case of `CC1COc2c(nc(-c3cnc(N)nc3)nc2N2CCOCC2)O1` (centres unmarked) [Compound 103, 5-(7-methyl-4-morpholino-6,7-dihydro-[1,4]dioxino[2,3-d]pyrimidin-2-yl)pyrimidin-2-amine], the half-maximal effective concentration (EC50) in data set [1] is 0.63 µM; in data set [2], 0.606 µM.

For `CC1(C)COc2c(nc(-c3cnc(N)nc3)nc2N2CCOCC2)O1` [Compound 104, 5-(7,7-dimethyl-4-morpholino-6H-[1,4]dioxino[2,3-d]pyrimidin-2-yl)pyrimidin-2-amine], the results for the half-maximal effective concentration (EC50) in data set [1] and in data set [2] were 0.577 µM and 0.406 µM, respectively.

`Nc1ncc(-c2nc3c(c(N4CCOCC4)n2)OCC(C(F)(F)F)O3)cn1` (centres unmarked) [Compound 105, 5-[4-morpholino-7-(trifluoromethyl)-6,7-dihydro-[1,4]dioxino[2,3-d]pyrimidin-2-yl]pyrimidin-2-amine]: the EC50 came to 0.275 µM in data set [1] and 0.5 µM in data set [2]. Also, the fraction unbound in data set [3] was 0.183.

In the case of `Nc1ncc(-c2nc3c(c(N4CCOCC4)n2)OCC2(CC2)O3)cn1` [Compound 106, 5-(4-morpholinospiro[6H-[1,4]dioxino[2,3-d]pyrimidine-7,1′-cyclopropane]-2-yl)pyrimidin-2-amine], the concentration for a half-maximal effect (EC50) in data set [1] turned out to be 0.544 µM; in data set [2], 0.489 µM. Besides, the fraction unbound in data set [3] was 0.134.

In the case of `Nc1ncc(-c2nc3c(c(N4CCOCC4)n2)OC(C2CC2)CO3)cn1` (centres unmarked) [Compound 107, 5-(6-cyclopropyl-4-morpholino-6,7-dihydro-[1,4]dioxino[2,3-d]pyrimidin-2-yl)pyrimidin-2-amine], the EC50 worked out at 0.961 µM in data set [1] and 1.2 µM in data set [2].

With `CC(C)(C)C1COc2c(nc(-c3cnc(N)nc3)nc2N2CCOCC2)O1` (centres unmarked) [Compound 108, 5-(7-tert-butyl-4-morpholino-6,7-dihydro-[1,4]dioxino[2,3-d]pyrimidin-2-yl)pyrimidin-2-amine], the concentration for a half-maximal effect (EC50) in data set [1] came out at 0.213 µM; in data set [2], 0.338 µM.

As for `CC1(C)COc2c(nc(-c3cccc(O)c3)nc2N2CCOCC2)O1` [Compound 109, 3-(7,7-dimethyl-4-morpholino-6H-[1,4]dioxino[2,3-d]pyrimidin-2-yl)phenol], the concentration for a half-maximal effect (EC50) in data set [1] stood at 0.445 µM; in data set [2] it was 0.182 µM.

Take `COc1ncc(-c2nc3c(c(N4CCOCC4)n2)OCC(C)(C)O3)cn1` [Compound 110, 2-(2-methoxypyrimidin-5-yl)-7,7-dimethyl-4-morpholino-6H-[1,4]dioxino[2,3-d]pyrimidine]: the values for the concentration giving a half-maximal response (EC50) in data set [1] and in data set [2] were 4.1 µM and 4.8 µM, respectively.

For the compound `CC1(C)COc2c(nc(-c3ccc(N)nc3)nc2N2CCOCC2)O1` [Compound 111, 5-(7,7-dimethyl-4-morpholino-6H-[1,4]dioxino[2,3-d]pyrimidin-2-yl)pyridin-2-amine], the concentration giving a half-maximal response (EC50) in data set [1] came to 0.545 µM; in data set [2], 0.48 µM.

In the case of `CC(=O)Nc1ccc(-c2nc3c(c(N4CCOCC4)n2)OCC(C)(C)O3)cc1` [Compound 112, N-[4-(7,7-dimethyl-4-morpholino-6H-[1,4]dioxino[2,3-d]pyrimidin-2-yl)phenyl]acetamide], the figures for the EC50 in data set [1] and in data set [2] were 1.8 µM and 2.1 µM, respectively.

Turning to `CNc1ccc(-c2nc3c(c(N4CCOCC4)n2)OCC(C)(C)O3)cn1` [Compound 113, 5-(7,7-dimethyl-4-morpholino-6H-[1,4]dioxino[2,3-d]pyrimidin-2-yl)-N-methyl-pyridin-2-amine], the EC50 in data set [1] was 2 µM; in data set [2] it was 2.1 µM.

As to `CC1(C)COc2c(nc(-c3cccc(NS(C)(=O)=O)c3)nc2N2CCOCC2)O1` [Compound 114, N-[3-(7,7-dimethyl-4-morpholino-6H-[1,4]dioxino[2,3-d]pyrimidin-2-yl)phenyl]methanesulfonamide], the concentration for a half-maximal effect (EC50) in data set [1] was > 7.5 µM; in data set [2], > 10 µM.

On to `CC1(C)COc2c(nc(-c3ccc4[nH]ccc4c3)nc2N2CCOCC2)O1` [Compound 115, 2-(1H-indol-5-yl)-7,7-dimethyl-4-morpholino-6H-[1,4]dioxino[2,3-d]pyrimidine], for which the values for the concentration giving a half-maximal response (EC50) in data set [1] and in data set [2] were 1.8 µM and 2.3 µM, respectively.

Consider `Nc1ncc(-c2nc3c(c(N4CCOCC4)n2)OCC(CF)O3)cn1` (centres unmarked) [Compound 116, 5-[7-(fluoromethyl)-4-morpholino-6,7-dihydro-[1,4]dioxino[2,3-d]pyrimidin-2-yl]pyrimidin-2-amine], for which the 50% effective concentration (EC50) in data set [1] was 0.73 µM; in data set [2] it was 0.76 µM. In addition, in data set [3], the fraction unbound was 0.17.

Consider `Nc1ncc(-c2nc3c(c(N4CCOCC4)n2)OCC(CO)O3)cn1` (centres unmarked) [Compound 117, [2-(2-aminopyrimidin-5-yl)-4-morpholino-6,7-dihydro-[1,4]dioxino[2,3-d]pyrimidin-7-yl]methanol], for which the EC50 amounted to 0.669 µM in data set [1] and 0.759 µM in data set [2].

As for `CN1CCOc2c1nc(-c1cnc(N)nc1)nc2N1CCOCC1` [Compound 119, 5-(8-methyl-4-morpholino-7,8-dihydro-6H-pyrimido[5,4-b][1,4]oxazin-2-yl)pyrimidin-2-amine], the EC50 was found to be 2.6 µM in data set [1] and 3.1 µM in data set [2].

Consider `CN1C(=O)COc2c(N3CCOCC3)nc(-c3cnc(N)nc3)nc21` [Compound 120, 2-(2-aminopyrimidin-5-yl)-8-methyl-4-morpholino-6H-pyrimido[5,4-b][1,4]oxazin-7(8H)-one], for which the 50% effective concentration (EC50) in data set [1] was 0.57 µM; in data set [2], 0.589 µM. Also, in data set [3], the fraction unbound was 0.16.
